Source: US8008491B2, “Substituted AZA-indoles as inhibitors of poly(ADP-ribose) polymerase (PARP)” (Aventis Pharmaceuticals, Inc., priority 2003, dated 2011)

Assays:
[1] = system: Male Sprague-Dawley rats; assay: Myocardial ischemia model: coronary artery occlusion and reperfusion, infarct size; assay type: in vivo, rat; settings: 20 min occlusion, 60 min reperfusion
Excerpt: Male Sprague-Dawley rats are anesthetized and the chest is opened. A thin silk thread is placed around the left anterior descending coronary artery. The silk is passed through a plastic tube and the chest is closed. After stable hemodynamics, the coronary artery is occluded by applying tension to the thread via the tube. Successful occlusion is confirmed by a decrease in systolic blood pressure and alterations in ECG. Reperfusion is initiated by releasing the tension on the ligature.
For testing efficacy of Example 3 in this animal model, animals are divided into three groups. One group received the compound of Example 3 at 10 mg/kg i.v. 10 min prior to occlusion. A second group received compound of Example 3 at the same dose 5 min prior to reperfusion. The third group served as vehicle control. The period of occlusion is 20 min, followed by reperfusion for 60 min. After sacrifice infarct size is measured by staining of heart tissue slices with triphenyltetrazolium chloride and expressed as a percent (%) of area at risk.
A similar study is carried out with cariporide, a reference standard.

[2] = system: Male Fisher 344 rats; assay: Stroke model: middle cerebral artery (MCA) occlusion, infarct volume; assay type: in vivo, rat; settings: total dose 40 mg/kg i.v. (10 mg/kg bolus plus 5 mg/kg/hr for 6 hrs) 15 min after MCA occlusion; 48 hours post-occlusion
Description: Male Fisher 344 rats are anesthetized. The right carotid artery is isolated and ligated, and the right jugular vein is canulated for compound administration. The middle cerebral artery (MCA) was exposed through a craniotomy, and the MCA and its right branch, the lenticulostriate artery are electrocoagulated. The arteries are cut to avoid recanalization. […] The compounds are given as a 10 mg/kg bolus followed by an infusion of 5 mg/kg/hr for 6 hrs (total dose 40 mg/kg).
48 Hours post-MCA occlusion the rats are sacrificed, and the brains removed and cut into 2-mm coronal sections.
A total dose of 40 mg/kg of 2-(piperazin-1-yl)-1-phenyl-1H-indole-3-carboxaldehyde (Example 3) is given as bolus plus infusion as described above.

[3] = system: HL-60 (human leukemia) cells; assay: Cell-based assay: protection from cell death induced by serum deprivation (Alamar Blue); settings: median effective concentration preventing cell death, HL-60, 0.1% FCS, 24 hr
Description: HL-60 (human leukemia) cells are grown and maintained using standard procedures in RPMI 1640+Glutamax medium supplemented with 10% fetal calf serum (FCS). For assay, cells are suspended in medium supplemented with 0.1% FCS at 0.5 million cells/mL and seeded into 96 well plates (100 μL/well). After preincubation for 3 hrs, cells are treated with compound for 1 hr, then Alamar Blue (Serotec) is added to the cells. After a further 24 hr incubation, fluorescence is measured (ex 560 nm, em 590 nm). Decrease in fluorescence compared to control cells (10 μM of a potent PARP inhibitor) is a measure of cell death. Increased fluorescence in the presence of test compound indicates protection from cell death induced by serum deprivation. For detection of polyADP-ribosylation, cells are subjected to serum deprivation in the presence and absence of compound. Cells are lysed and proteins are run on an SDS-PAGE gel. PolyADP-ribosylated proteins are detected with antibody to polyADP-ribose (Alexis or Calbiochem).
The results obtained from this study are expressed as EC50 (median effective concentration of the test compound that was effective in preventing the cell death—expressed in micromolar (μM) concentration) for each of the tested compounds and are summarized in Table 4.

[4] = target: human PARP (PARP1) (Homo sapiens, UniProt P09874); assay: PARP enzyme assay of Table 3 (radioactive enzyme assay or 'ELISA' enzyme assay); settings: IC50 (μM), fifty percent inhibitory concentration; recombinant human PARP;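 note: Baculovirus-expressed PARP1 from insect cells, activity read as tritium from labeled NAD in acid-precipitated protein, or as biotin-NAD built into plate-bound histone by absorbance at 450 nm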
Chain of human PARP (PARP1) (P09874 whole entry): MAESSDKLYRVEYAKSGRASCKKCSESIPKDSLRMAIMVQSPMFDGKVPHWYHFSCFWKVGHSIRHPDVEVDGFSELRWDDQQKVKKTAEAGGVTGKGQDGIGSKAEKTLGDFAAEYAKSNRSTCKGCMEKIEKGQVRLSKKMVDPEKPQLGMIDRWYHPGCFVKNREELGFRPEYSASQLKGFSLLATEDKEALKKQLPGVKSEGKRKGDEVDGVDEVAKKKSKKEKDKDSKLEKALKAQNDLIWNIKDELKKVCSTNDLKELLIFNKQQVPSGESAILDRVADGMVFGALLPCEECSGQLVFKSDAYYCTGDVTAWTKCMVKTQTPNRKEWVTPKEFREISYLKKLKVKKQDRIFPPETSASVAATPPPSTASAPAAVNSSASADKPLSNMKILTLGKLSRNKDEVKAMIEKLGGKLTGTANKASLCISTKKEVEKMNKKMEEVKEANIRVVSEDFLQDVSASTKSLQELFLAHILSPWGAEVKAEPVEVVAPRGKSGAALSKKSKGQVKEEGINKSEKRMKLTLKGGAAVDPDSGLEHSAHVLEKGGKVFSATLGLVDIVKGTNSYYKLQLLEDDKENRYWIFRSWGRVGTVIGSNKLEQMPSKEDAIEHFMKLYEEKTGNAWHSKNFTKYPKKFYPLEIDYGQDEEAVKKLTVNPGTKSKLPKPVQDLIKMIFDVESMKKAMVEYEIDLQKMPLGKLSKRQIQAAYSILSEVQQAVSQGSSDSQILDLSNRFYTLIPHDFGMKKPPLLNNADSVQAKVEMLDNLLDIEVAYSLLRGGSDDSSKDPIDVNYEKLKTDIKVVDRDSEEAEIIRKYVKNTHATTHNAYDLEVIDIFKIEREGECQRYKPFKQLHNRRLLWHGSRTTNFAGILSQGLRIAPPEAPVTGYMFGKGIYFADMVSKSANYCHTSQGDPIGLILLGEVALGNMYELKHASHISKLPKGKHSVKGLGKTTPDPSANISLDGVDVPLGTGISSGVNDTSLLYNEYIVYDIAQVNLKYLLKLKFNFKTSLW
Description: The compounds of this invention are then tested with this enzyme preparation using either the radioactive enzyme assay or by the “ELISA” enzyme assay as set forth below.
Incorporation of radioactivity from labeled NAD into acid-precipitated protein is measured. The reaction mixture (volume 100 μL or 50 μL, in a test-tube or 96-well plate) contained 100 μg/mL calf thymus DNA (sonicated), 100 μg/mL histones, 100 mM Tris (pH 8.0), 1.0 mM DTT, 10 mM MgCl2, NAD (200 μm, 0.65 microcurie/mL), and varying amounts of enzyme. The reaction was incubated for 10 min at 37° C. or at room temperature for 60 min. The reaction was stopped and protein precipitated by addition of ice-cold trichloroacetic acid (TCA; 10% or 20% aqueous w/v). After brief storage in ice or at 4° C. for 2 hrs, the reaction mixture is filtered under vacuum through a glass fiber filter (2.5 cm disc, or 96-well filter plate). After washing with TCA and ethanol, the filter is dried and counted for tritium CPM after addition of scintillation fluid.
Incorporation of biotin-NAD into histone coated on plate is measured. A 96-well protein-binding EIA plate is coated with histone and blocked with bovine serum albumin. The reaction mixture (50 μL) contained DNA, buffer, enzyme, (test compound), and 250 μM of NAD and 5 μL of biotin-NAD (Trevigen). After reaction at room temperature the wells are washed and treated with Extravidin (Sigma). After incubation and washing color is developed with the peroxidase substrate TMB (Sigma). The TMB reaction is quenched with 2M sulfurric acid and the absorbance at 450 nm is read.

SMILES: O=Cc1c(N2CCNCC2)n(-c2ccccc2)c2ccccc12 [Example 3, 2-(Piperazin-1-yl)-1-phenyl-1H-indole-3-carboxaldehyde]
- infarct size (% of area at risk), effect when given prior to reperfusion ([1]; 10 mg/kg i.v. 5 min prior to reperfusion (Example 3)): small but significant effect
- infarct size (% of area at risk), effect when given prior to ischemia ([1]; 10 mg/kg i.v. 10 min prior to occlusion (Example 3)): significant protection
- reduction in infarct volume [2]: 40-50%
- EC50 [3]: 1.9 µM
- IC50 [4]: 2.5 µM
